Holding throughout (format): cell-based
One assay concerns the target T1, STAT3 (Homo sapiens, UniProt P40763).
T1 construct: plasmid pSTAT3-TA-luc), which contains a stably operating STAT3 promoter; endogenous in cells
In words: STAT3 reporter gene assay (luciferase), LNCaP stable cell line (pSTAT3-TA-luc), IL-6 stimulation. Put shortly:
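Cytotoxicity was run on a duplicate plate with CellTiter-Glo, while the other plate gave luciferase read-outs from lysed LNCaP pSTAT3-TA-luc reporter cells. Cells were treated with graded compound concentrations plus IL-6 (10 ng/mL final) for 24–48 h in 3% DCC-FBS medium. Unstimulated and stimulated wells served as negative and positive controls.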
(Reporter assays use an easily measured gene product as a stand-in for the process of interest.)

A further assay relates to LNCaP. Description: Cell growth inhibition assay, prostate cancer cell line LNCaP (medium with 10 ng/mL IL-6). Particulars: Homo sapiens, medium supplemented with 10 ng/mL of IL-6, 10,000 cells/well.
The subject of another assay is DU-145. In words: Cell growth inhibition assay, prostate cancer cell line DU-145. Conditions: Homo sapiens, DU-145 prostate cancer cell line. Put shortly:
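Viability by CellTiter-Glo luminescence after 72–96 h of compound dosing at 37° C. under 5% CO2; DU-145 and HCT116 seeded at 3,000 cells/well, SW626 at 5,000 cells/well.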

A further assay has as its system HEL92.1.7. In words: Cell growth inhibition assay, blood cancer cell line HEL92.1.7. Conditions: Homo sapiens, HEL 92.1.7, HEL92.1.7 blood cancer cell line. The procedure, abridged:
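Cells were seeded at 3,000/well (HCT116, DU-145) or 5,000/well (SW626 and the others) and exposed to serial compound dilutions for 72 to 96 h at 37 °C under 5% CO2. Viability was read as CellTiter-Glo luminescence against 0.1% DMSO and cell-free wells.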

SMILES strings stand for the structures. Bounds are passed on as bounds.

As usually defined, the IC50 is the point on the concentration scale where inhibition reaches its midpoint. Higher therefore signals a need for much substance.

T1 sequence (P40763 whole entry): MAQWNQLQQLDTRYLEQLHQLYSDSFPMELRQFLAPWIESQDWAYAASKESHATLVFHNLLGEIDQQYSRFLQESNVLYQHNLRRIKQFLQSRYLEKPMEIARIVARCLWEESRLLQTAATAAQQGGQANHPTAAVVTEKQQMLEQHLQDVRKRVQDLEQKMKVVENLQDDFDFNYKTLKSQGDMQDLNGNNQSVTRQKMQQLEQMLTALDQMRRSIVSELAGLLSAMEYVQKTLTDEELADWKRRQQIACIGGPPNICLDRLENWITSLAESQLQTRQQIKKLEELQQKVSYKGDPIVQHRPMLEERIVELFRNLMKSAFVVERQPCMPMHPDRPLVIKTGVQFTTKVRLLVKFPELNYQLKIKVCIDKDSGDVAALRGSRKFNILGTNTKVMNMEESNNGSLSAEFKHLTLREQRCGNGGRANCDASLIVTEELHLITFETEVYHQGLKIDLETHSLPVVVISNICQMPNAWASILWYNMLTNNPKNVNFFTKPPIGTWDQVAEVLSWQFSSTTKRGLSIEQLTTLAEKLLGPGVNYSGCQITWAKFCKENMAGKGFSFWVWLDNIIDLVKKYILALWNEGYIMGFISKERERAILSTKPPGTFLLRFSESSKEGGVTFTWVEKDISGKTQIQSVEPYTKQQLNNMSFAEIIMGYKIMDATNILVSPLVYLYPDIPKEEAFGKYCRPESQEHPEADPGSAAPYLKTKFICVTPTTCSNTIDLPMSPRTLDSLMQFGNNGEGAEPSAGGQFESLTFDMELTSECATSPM

For the compound `CC(C)(c1cc[nH]c1)c1cc(Cl)cc(NC(=O)c2cc3cc(NS(C)(=O)=O)ccc3s2)c1` [Example 167, N-(3-(2-(1H-pyrrol-3-yl)propan-2-yl)-5-chlorophenyl)-5-(methylsulfonamido)benzo[b]thiophene-2-carboxamide], the half-inhibitory concentration (IC50) on STAT3 was 2.6 µM; with LNCaP, 2.3 µM; in the assay with DU-145, greater than 1.1 µM; in the assay with HEL92.1.7 it was greater than 1.1 µM.
Consider `Cn1ccc(C(C)(C)c2cc(Cl)cc(NC(=O)c3cc4cc(NS(C)(=O)=O)ccc4s3)c2)c1` [Example 168, N-(3-chloro-5-(2-(1-methyl-1H-pyrrol-3-yl)propan-2-yl)phenyl)-5-(methylsulfonamido)benzo[b]thiophene-2-carboxamide], for which the IC50 was 0.13 µM against STAT3, 0.096 µM in the assay on LNCaP, 0.13 µM in the assay on DU-145 and 0.39 µM with HEL92.1.7.
Consider `Cn1cccc1C(C)(C)c1cc(Cl)cc(NC(=O)c2cc3cc(NS(C)(=O)=O)ccc3s2)c1` [Example 169, N-(3-chloro-5-(2-(1-methyl-1H-pyrrol-2-yl)propan-2-yl)phenyl)-5-(methylsulfonamido)benzo[b]thiophene-2-carboxamide], for which the half-inhibitory concentration (IC50) against STAT3 was 0.039 µM; in the assay on LNCaP, 0.073 µM; in the assay on DU-145, 0.021 µM; in the assay on HEL92.1.7, 0.09 µM.
Turning to `CC(C)(c1cc(Cl)cc(NC(=O)c2cc3cc(NS(C)(=O)=O)ccc3s2)c1)n1cnccc1=O` [Example 189], the IC50 against STAT3 was greater than 10 µM; in the assay with LNCaP, greater than 10 µM; with DU-145, greater than 1.1 µM; in the assay with HEL92.1.7, greater than 1.1 µM.
`CC(C)(c1cc(Cl)cc(NC(=O)c2cc3cc(NS(C)(=O)=O)ccc3s2)c1)n1ncccc1=O` [Example 190, N-(3-chloro-5-(2-(6-oxopyridazin-1(6H)-yl)propan-2-yl)phenyl)-5-(methylsulfonamido)benzo[b]thiophene-2-carboxamide]: the half-maximal inhibitory concentration (IC50) on STAT3 was 2.37 µM; in the assay on LNCaP it was greater than 1.1 µM; with DU-145 it was greater than 1.1 µM; with HEL92.1.7 it was greater than 1.1 µM.
In the case of `CC(C)Oc1cc(OC(F)(F)F)cc(C(C)(C)c2cc(Cl)cc(NC(=O)c3cc4cc(NC(=O)OC(C)(C)C)ccc4s3)c2)c1` [Example 194, tert-butyl (2-((3-chloro-5-(2-(3-isopropoxy-5-(trifluoromethoxy)phenyl)propan-2-yl)phenyl)carbamoyl)benzo[b]thiophen-5-yl)carbamate], the half-maximal inhibitory concentration (IC50) against STAT3 is greater than 10 µM; in the assay with LNCaP, greater than 1.1 µM; in the assay on DU-145 it was greater than 1.1 µM; with HEL92.1.7, greater than 1.1 µM.
`COCCS(=O)(=O)Nc1ccc2sc(C(=O)Nc3cc(Cl)cc(C(C)(C)c4cc(OC(C)C)cc(OC(F)(F)F)c4)c3)cc2c1` [Example 195, N-(3-chloro-5-(2-(3-isopropoxy-5-(trifluoromethoxy)phenyl)propan-2-yl)phenyl)-5-((2-methoxyethyl)sulfonamido)benzo[b]thiophene-2-carboxamide]: the concentration for half-maximal inhibition (IC50) on STAT3 is 0.011 µM; in the assay on LNCaP it was 0.035 µM; in the assay on DU-145 it was 0.007 µM; in the assay on HEL92.1.7, 0.029 µM.
The like results for `CC(C)Oc1cc(OC(F)(F)F)cc(C(C)(C)c2cc(Cl)cc(NC(=O)c3cc4cc(NS(=O)(=O)CC5CCOC5)ccc4s3)c2)c1` (stereo not shown) [Example 196, N-(3-chloro-5-(2-(3-isopropoxy-5-(trifluoromethoxy)phenyl)propan-2-yl)phenyl)-5-(((tetrahydrofuran-3-yl)methyl)sulfonamido)benzo[b]thiophene-2-carboxamide] were, in that order, 0.02 µM, 0.084 µM, 0.022 µM and 0.12 µM.
Turning to `Cc1noc(C)c1S(=O)(=O)Nc1ccc2sc(C(=O)Nc3cc(Cl)cc(C(C)(C)c4cc(OC(C)C)cc(OC(F)(F)F)c4)c3)cc2c1` [Example 199, N-(3-chloro-5-(2-(3-isopropoxy-5-(trifluoromethoxy)phenyl)propan-2-yl)phenyl)-5-((3,5-dimethylisoxazole)-4-sulfonamido)benzo[b]thiophene-2-carboxamide], the IC50 came out at 0.65 µM against STAT3, 0.34 µM in the assay on LNCaP, 0.15 µM in the assay on DU-145 and 0.68 µM in the assay on HEL92.1.7.
In the case of `CC(C)Oc1cc(OC(F)(F)F)cc(C(C)(C)c2cc(Cl)cc(NC(=O)c3cc4cc(NS(=O)(=O)c5ccn(C)n5)ccc4s3)c2)c1` [Example 200, N-(3-chloro-5-(2-(3-isopropoxy-5-(trifluoromethoxy)phenyl)propan-2-yl)phenyl)-5-((1-methyl-1H-pyrazole)-3-sulfonamido)benzo[b]thiophene-2-carboxamide], the IC50 amounted to 0.069 µM on STAT3, 0.28 µM with LNCaP, 0.19 µM in the assay with DU-145 and 0.3 µM in the assay on HEL92.1.7.
Turning to `CC(C)Oc1cc(OC(F)(F)F)cc(C(C)(C)c2cc(Cl)cc(NC(=O)c3cc4cc(NS(=O)(=O)c5cnn(C)c5)ccc4s3)c2)c1` [Example 201, N-(3-chloro-5-(2-(3-isopropoxy-5-(trifluoromethoxy)phenyl)propan-2-yl)phenyl)-5-((1-methyl-1H-pyrazole)-4-sulfonamido)benzo[b]thiophene-2-carboxamide], the IC50 at STAT3 was 0.029 µM; in the assay on LNCaP, 0.064 µM; in the assay on DU-145 it was 0.018 µM; in the assay on HEL92.1.7 it was 0.053 µM.
The like results for `CCS(=O)(=O)Nc1ccc2sc(C(=O)Nc3cc(Cl)cc(C(C)(C)c4cc(OC(C)C)cc(OC(F)(F)F)c4)c3)cc2c1` [Example 202, N-(3-chloro-5-(2-(3-isopropoxy-5-(trifluoromethoxy)phenyl)propan-2-yl)phenyl)-5-(ethylsulfonamido)benzo[b]thiophene-2-carboxamide] were, in that order, 0.007 µM, 0.014 µM, 0.007 µM and 0.013 µM.
Turning to `CC(C)Oc1cc(OC(F)(F)F)cc(C(C)(C)c2cc(Cl)cc(NC(=O)c3cc4cc(NS(=O)(=O)C(C)C)ccc4s3)c2)c1` [Example 203, N-(3-chloro-5-(2-(3-isopropoxy-5-(trifluoromethoxy)phenyl)propan-2-yl)phenyl)-5-((1-methylethyl)sulfonamido)benzo[b]thiophene-2-carboxamide], the half-inhibitory concentration (IC50) turned out to be 0.006 µM at STAT3, 0.023 µM in the assay with LNCaP, 0.008 µM in the assay with DU-145 and 0.017 µM in the assay on HEL92.1.7.
For `CC(C)Oc1cc(OC(F)(F)F)cc(C(C)(C)c2cc(Cl)cc(NC(=O)c3cc4cc(NS(=O)(=O)C5CCOC5)ccc4s3)c2)c1` (stereo not shown) [Example 204, N-(3-chloro-5-(2-(3-isopropoxy-5-(trifluoromethoxy)phenyl)propan-2-yl)phenyl)-5-((tetrahydrofuran)-3-sulfonamido)benzo[b]thiophene-2-carboxamide], the IC50 on STAT3 worked out at 0.051 µM; with LNCaP, 0.095 µM; in the assay on DU-145, 0.017 µM; in the assay on HEL92.1.7, 0.05 µM.
`CC(C)Oc1cc(OC(F)(F)F)cc(C(C)(C)c2cc(Cl)cc(NC(=O)c3cc4cc(NS(=O)(=O)C5CCS(=O)(=O)CC5)ccc4s3)c2)c1` [Example 205, N-(3-chloro-5-(2-(3-isopropoxy-5-(trifluoromethoxy)phenyl)propan-2-yl)phenyl)-5-((1,1-dioxidotetrahydro-2H-thiopyran)-4-sulfonamido)benzo[b]thiophene-2-carboxamide]: the IC50 on STAT3 was 0.3 µM; with LNCaP it was 0.31 µM; with DU-145, 0.063 µM; in the assay with HEL92.1.7, 0.58 µM.
In the case of `CC(=O)N1CCC(S(=O)(=O)Nc2ccc3sc(C(=O)Nc4cc(Cl)cc(C(C)(C)c5cc(OC(C)C)cc(OC(F)(F)F)c5)c4)cc3c2)CC1` [Example 206, 5-((1-acetylpiperidine)-4-sulfonamido)-N-(3-chloro-5-(2-(3-isopropoxy-5-(trifluoromethoxy)phenyl)propan-2-yl)phenyl)benzo[b]thiophene-2-carboxamide], the IC50 was determined as 0.19 µM against STAT3, 0.19 µM with LNCaP, 0.051 µM in the assay with DU-145 and 0.35 µM in the assay with HEL92.1.7.
On to `C=CS(=O)(=O)Nc1ccc2sc(C(=O)Nc3cc(Cl)cc(C(C)(C)c4cc(OC(C)C)cc(OC(F)(F)F)c4)c3)cc2c1` [Example 207, N-(3-chloro-5-(2-(3-isopropoxy-5-(trifluoromethoxy)phenyl)propan-2-yl)phenyl)-5-(vinylsulfonamido)benzo[b]thiophene-2-carboxamide], for which the IC50 is 3 µM against STAT3, greater than 1.1 µM in the assay on LNCaP, greater than 1.1 µM in the assay with DU-145 and greater than 1.1 µM in the assay on HEL92.1.7.
For `CC(C)Oc1cc(OC(F)(F)F)cc(C(C)(C)c2cc(Cl)cc(NC(=O)c3cc4cc(NS(=O)(=O)CCN(C)C)ccc4s3)c2)c1` [Example 208, N-(3-chloro-5-(2-(3-isopropoxy-5-(trifluoromethoxy)phenyl)propan-2-yl)phenyl)-5-((2-(dimethylamino)ethyl)sulfonamido)benzo[b]thiophene-2-carboxamide], the 50% inhibitory concentration (IC50) came to 0.17 µM against STAT3, 0.22 µM in the assay with LNCaP, 0.08 µM in the assay on DU-145 and 0.33 µM in the assay with HEL92.1.7.
The matching figures for `CC(C)Oc1cc(OC(F)(F)F)cc(C(C)(C)c2cc(Cl)cc(NC(=O)c3cc4cc(NS(=O)(=O)CCN5CCOCC5)ccc4s3)c2)c1` [Example 209, N-(3-chloro-5-(2-(3-isopropoxy-5-(trifluoromethoxy)phenyl)propan-2-yl)phenyl)-5-((2-morpholinoethyl)sulfonamido)benzo[b]thiophene-2-carboxamide]: 0.043 µM, 0.053 µM, 0.027 µM and 0.099 µM.

(Values after patent US10562912B2 (C&C Research Laboratories, priority 2013, dated 2020).)
